Assay results reported in patent US20260102359A1, “COMBINATION TREATMENT OF DERMAL AND TRANSDERMAL FIBROTIC DISEASES, DISORDERS AND ASSOCIATED PAIN AND INFLAMMATION” (ERESINA, LLC, priority 2022, published 2026).
Counter-ions that a name gives are not always drawn.

System: hDMFa myofibroblast cells

| SMILES | Compound Myofibroblast Cytotoxicity Activity |
| --- | --- |
| CC(=O)SCC(Cc1ccccc1)C(=O)NCC(=O)OCc1ccccc1 (stereo not shown) [Cmpd 817, Racecadotril] | ++ |
| Cc1cn(-c2cc(NC(=O)c3ccc(C)c(Nc4nccc(-c5cnccn5)n4)c3)cc(C(F)(F)F)c2)cn1 [Cmpd 818, Radotinib(IY-5511)] | ++++ |
| O=C(c1ccc(OCCN2CCCCC2)cc1)c1c(-c2ccc(O)cc2)sc2cc(O)ccc12 [Cmpd 819, Raloxifene HCl] | ++++ |
| CO[C@H]1C[C@@H]2CC[C@@H](C)[C@@](O)(O2)C(=O)C(=O)N2CCCC[C@H]2C(=O)O[C@H]([C@H](C)C[C@@H]2CC[C@@H](O)[C@H](OC)C2)CC(=O)[C@H](C)/C=C(\C)[C@@H](O)[C@@H](OC)C(=O)[C@H](C)C[C@H](C)/C=C/C=C/C=C/1C [Cmpd 820, Rapamycin (Sirolimus)] | ++++ |
| C#CCN[C@@H]1CCc2ccccc21 [Cmpd 821, Rasagiline] | ++ |
| CCOc1cc(CC(=O)N[C@@H](CC(C)C)c2ccccc2N2CCCCC2)ccc1C(=O)O [Cmpd 826, Repaglinide] | +++ |
| O=c1ccc2[n+]([O-])c3ccc(O)cc3oc-2c1 [Cmpd 827, Resazurin sodium salt] | ++ |
| Oc1ccc(C=Cc2cc(O)cc(O)c2)cc1 [Cmpd 829, Resveratrol] | ++ |
| CCCCCCCCCCCCCCCC(=O)OC/C=C(C)/C=C/C=C(C)/C=C/C1=C(C)CCCC1(C)C [Cmpd 830, Retinyl (Vitamin A) Palmitate] | ++ |
| CO[C@H]1/C=C/O[C@@]2(C)Oc3c(C)c(O)c4c(O)c(cc(O)c4c3C2=O)NC(=O)/C(C)=C\C=C\[C@H](C)[C@H](O)[C@@H](C)[C@@H](O)[C@@H](C)[C@H](OC(C)=O)[C@@H]1C [Cmpd 833, Rifamycin sodium salt] | ++ |
| CO[C@H]1/C=C/O[C@@]2(C)Oc3c(C)c(O)c4c(O)c(c(/C=N/N5CCN(C6CCCC6)CC5)c(O)c4c3C2=O)NC(=O)/C(C)=C\C=C\[C@H](C)[C@H](O)[C@@H](C)[C@@H](O)[C@@H](C)[C@H](OC(C)=O)[C@@H]1C [Cmpd 834, Rifapentine] | +++ |
| N=C(N/N=C/c1ccc(Cl)cc1)N/N=C/c1ccc(Cl)cc1 [Cmpd 838, Robenidine hydrochloride] | ++ |
| C/C=C1\NC(=O)[C@H]2CSSCC/C=C/[C@H](CC(=O)N[C@H](C(C)C)C(=O)N2)OC(=O)[C@H](C(C)C)NC1=O [Cmpd 839, Romidepsin (FK228,depsipeptide)] | ++ |
| CCCN1CCCC[C@H]1C(=O)Nc1c(C)cccc1C.CS(=O)(=O)O [Cmpd 840, Ropivacaine Mesilate] | ++ |
| CN(C(=O)c1c(O)c2ccccc2n(C)c1=O)c1ccccc1 [Cmpd 841, Roquinimex] | ++ |
| CC(C)c1nc(N(C)S(C)(=O)=O)nc(-c2ccc(F)cc2)c1/C=C/[C@@H](O)C[C@@H](O)CC(=O)[O-].CC(C)c1nc(N(C)S(C)(=O)=O)nc(-c2ccc(F)cc2)c1/C=C/[C@@H](O)C[C@@H](O)CC(=O)[O-].[Ca+2] [Cmpd 842, Rosuvastatin Calcium] | +++ |
| NC(=O)c1cn(Cc2c(F)cccc2F)nn1 [Cmpd 843, Rufinamide] | +++ |
| Cc1cncc(CN2CCC(=C3c4ccc(Cl)cc4CCc4cccnc43)CC2)c1.O=C(O)/C=C/C(=O)O [Cmpd 844, Rupatadine Fumarate] | +++ |
| C[C@H]1O[C@@H](O[C@H]2CC[C@@]3(C)[C@@H](CC[C@]4(C)[C@@H]3C=C[C@]35OC[C@@]6(CCC(C)(C)C[C@H]63)[C@@H](O)C[C@]54C)[C@]2(C)CO)[C@H](O)[C@@H](O[C@@H]2O[C@H](CO)[C@@H](O)[C@H](O)[C@H]2O)[C@H]1O [Cmpd 846, Saikosaponin A] | +++++ |
| CC(C)(C)NCC(O)c1ccc(O)c(CO)c1 (stereo not shown) [Cmpd 847, Salbutamol] | ++ |
| OCc1cc(C(O)CNCCCCCCOCCCCc2ccccc2)ccc1O (stereo not shown) [Cmpd 849, Salmeterol xinafoate] | +++ |
| C[n+]1cc2c3c(ccc2c2ccc4cc5c(cc4c21)OCO5)OCO3 [Cmpd 850, Sanguinarine] | +++++ |
| C[n+]1cc2c3c(ccc2c2ccc4cc5c(cc4c21)OCO5)OCO3 [Cmpd 851, Sanguinarine chloride] | ++++ |
| CC(C)(C)NC(=O)[C@@H]1C[C@@H]2CCCC[C@@H]2CN1C[C@@H](O)[C@H](Cc1ccccc1)NC(=O)[C@H](CC(N)=O)NC(=O)c1ccc2ccccc2n1 [Cmpd 852, Saquinavir mesylate] | ++++ |
| N#C[C@@H]1C[C@@H]2C[C@@H]2N1C(=O)[C@@H](N)C12CC3CC(CC(O)(C3)C1)C2 [Cmpd 854, Saxagliptin hydrate] | ++ |
| COc1cc2ccc(=O)oc2cc1O [Cmpd 857, Scopoletin] | ++ |
| O=C(O)CCCCCCCCC(=O)O.O=C(O)CCCCCCCCC(=O)O [Cmpd 858, sebacate (decanedioate)] | ++ |
| Clc1ccc(C(Cn2ccnc2)OCc2csc3c(Cl)cccc23)c(Cl)c1 (stereo not shown) [Cmpd 860, Sertaconazole nitrate] | +++++ |

| SMILES | Compound Myofibroblast Cytotoxicity Activity |
| --- | --- |
| CN[C@H]1CC[C@@H](c2ccc(Cl)c(Cl)c2)c2ccccc21 [Cmpd 861, Sertraline HCl] | ++++ |
| CCCc1nn(C)c2c(=O)[nH]c(-c3cc(S(=O)(=O)N4CCN(C)CC4)ccc3OCC)nc12.CS(=O)(=O)O [Cmpd 862, Sildenafil mesylate] | ++ |
| CC(C)(C)C(=O)Oc1ccc(S(=O)(=O)Nc2ccccc2C(=O)NCC(=O)O)cc1 [Cmpd 866, Sivelestat (ONO-5046)] | ++ |
| O=C([O-])c1ccccc1.[Na+] [Cmpd 870, Sodium benzoate] | ++++ |
| CCCCCCCCCCCCOS(=O)(=O)O [Cmpd 871, Sodium dodecyl sulfate] | +++++ |
| O=P([O-])([O-])O.[Na+].[Na+] [Cmpd 874, Sodium phosphate dibasic] | ++++ |
| C[C@H](CCC(=O)NCCS(=O)(=O)[O-])[C@H]1CC[C@H]2[C@@H]3[C@@H](O)C[C@@H]4C[C@H](O)CC[C@]4(C)[C@H]3CC[C@]12C.[Na+] [Cmpd 877, Sodium Tauroursodeoxycholate (TUDC)] | ++ |
| C/C=C/C=C/C(=O)O [Cmpd 881, Sorbic acid] | ++ |
| OC[C@@H](O)[C@@H](O)[C@H](O)[C@@H](O)CO [Cmpd 882, Sorbitol] | ++++ |
| CC(C)NCC(O)c1ccc(NS(C)(=O)=O)cc1 (stereo not shown) [Cmpd 883, Sotalol hydrochloride] | +++ |
| CN1CCN(c2nc(C3=C(c4c[nH]c5ccccc45)C(=O)NC3=O)c3ccccc3n2)CC1 [Cmpd 884, Sotrastaurin (AEB071)] | ++ |
| CN[C@@H]1[C@H](O)[C@H](NC)[C@H]2O[C@@]3(O)C(=O)C[C@@H](C)O[C@H]3O[C@@H]2[C@H]1O [Cmpd 885, Spectinomycin (hydrochloride hydrate)] | +++ |
| NCCCNCCCCNCCCN [Cmpd 887, Spermine] | ++ |
| CCCCCCCCCCCCCCCCCC(=O)O [Cmpd 889, Stearic Acid] | +++ |
| O=C(O)CCC(=O)Nc1ccc(S(=O)(=O)Nc2nccs2)cc1 [Cmpd 891, Succinylsulfathiazole] | ++ |
| Nc1ccc(S(=O)(=O)NC(=O)c2ccccc2)cc1 [Cmpd 893, Sulfabenzamide] | ++ |
| CC(=O)NS(=O)(=O)c1ccc(N)cc1 [Cmpd 894, Sulfacetamide sodium salt hydrate] | ++ |
| Cc1ccnc(NS(=O)(=O)c2ccc(N)cc2)n1 [Cmpd 895, Sulfamerazine] | +++ |
| Cc1nnc(NS(=O)(=O)c2ccc(N)cc2)s1 [Cmpd 896, Sulfamethizole] | ++++ |
| Nc1ccc(S(N)(=O)=O)cc1 [Cmpd 898, Sulfanilamide] | ++++ |
| Nc1ccc(S(=O)(=O)Nc2ccnn2-c2ccccc2)cc1 [Cmpd 899, Sulfaphenazole] | +++ |
| Nc1ccc(S(=O)(=O)Nc2nccs2)cc1 [Cmpd 900, Sulfathiazole] | ++++ |
| COc1cc(O)c(C(=O)c2ccccc2)cc1S(=O)(=O)O [Cmpd 901, Sulisobenzone] | ++ |
| CC1(C)S[C@@H]2[C@H](NC(=O)[C@H](N)c3ccccc3)C(=O)N2[C@H]1C(=O)OCOC(=O)[C@@H]1N2C(=O)C[C@H]2S(=O)(=O)C1(C)C [Cmpd 902, Sultamicillin] | ++ |
| Nc1c2c(nc3ccccc13)CCCC2 [Cmpd 906, Tacrine hydrochloride] | ++++ |
| CC/C(=C(\c1ccccc1)c1ccc(OCCN(C)C)cc1)c1ccccc1 [Cmpd 911, Tamoxifen Citrate] | +++ |
| Cc1coc2c1C(=O)C(=O)c1c-2ccc2c(C)cccc12 [Cmpd 912, Tanshinone I] | +++++ |
